These results are taken from ChEMBL document CHEMBL3046887, “Microwave-irradiated synthesis and antimicrobial activity of 2-phenyl-7-substitutedalkyl/arylaminoquinoline-4-carboxylic acid derivatives” (2010).

Common to all, as to format: functional
One assay deals with Bacillus subtilis. The assay is described as follows: Antibacterial activity against Bacillus subtilis MTCC 2397 at 10 ug/well after 24 hr by agar well diffusion method. The settings on record: for zone of inhibition at 10 µg/disc: MTCC 2397, 24 h, read-out: DIZ.
Assay [1] has as its system Streptococcus pyogenes. The assay is described as follows: Antibacterial activity against Streptococcus pyogenes MTCC 442 at 10 ug/well after 24 hr by agar well diffusion method. The settings on record: for zone of inhibition at 10 µg/disc: MTCC 442, 24 h, read-out: DIZ. Background: A growth-free zone around the sample is the usual read-out of agar diffusion tests.
A further assay deals with Escherichia coli. The assay is described as follows: Antibacterial activity against Escherichia coli MTCC 1652 at 10 ug/well after 24 hr by agar well diffusion method. The settings on record: for zone of inhibition at 10 µg/disc: MTCC 1652, 24 h, read-out: DIZ.
The subject of a further assay is Klebsiella pneumoniae. As to the kind of experiment: Antibacterial activity against Klebsiella pneumoniae MTCC 109 at 10 ug/well after 24 hr by agar well diffusion method. The settings on record: for zone of inhibition at 10 µg/disc: MTCC 109, 24 h, read-out: DIZ.
Another assay concerns Enterococcus faecalis. As to the kind of experiment: Antibacterial activity against Enterococcus faecalis MTCC 439 at 10 ug/well after 24 hr by agar well diffusion method. The settings on record: for zone of inhibition at 10 µg/disc: MTCC 439, 24 h, read-out: DIZ.
In a further assay the test system is Staphylococcus aureus. As to the kind of experiment: Antibacterial activity against Staphylococcus aureus MTCC 737 at 10 ug/well after 24 hr by agar well diffusion method. The conditions noted are these: for zone of inhibition at 10 µg/disc: MTCC 737, 24 h, read-out: DIZ.
A further assay has as its system Pseudomonas oleovorans. As to the kind of experiment: Antibacterial activity against Pseudomonas oleovorans MTCC 617 at 10 ug/well after 24 hr by agar well diffusion method. The conditions noted are these: Ectopseudomonas oleovorans; for zone of inhibition at 10 µg/disc: MTCC 617, 24 h, read-out: DIZ.
The subject of assay [2] is Pseudomonas aeruginosa. As to the kind of experiment: Antibacterial activity against Pseudomonas aeruginosa MTCC 741 at 10 ug/well after 24 hr by agar well diffusion method. The conditions noted are these: for zone of inhibition at 10 µg/disc: MTCC 741, 24 h, read-out: DIZ.
The next assay has as its system Bacillus cereus. As to the kind of experiment: Antibacterial activity against Bacillus cereus MTCC 430 at 10 ug/well after 24 hr by agar well diffusion method. The conditions noted are these: for zone of inhibition at 10 µg/disc: MTCC 430, 24 h, read-out: DIZ.
The subject of the next assay is Bacillus pumilus. As to the kind of experiment: Antibacterial activity against Bacillus pumilus MTCC 1640 at 10 ug/well after 24 hr by agar well diffusion method. The conditions noted are these: for zone of inhibition at 10 µg/disc: MTCC 1640, 24 h, read-out: DIZ.
Assay [3] concerns Streptococcus pyogenes. The assay is described as follows: Antibacterial activity against Streptococcus pyogenes MTCC 442 after 24 hr by agar dilution method. (Agar dilution tests growth on a series of plates holding different concentrations.)
For assay [4], the system named is Pseudomonas aeruginosa. The assay is described as follows: Antibacterial activity against Pseudomonas aeruginosa MTCC 741 after 24 hr by agar dilution method.

Activity calls are given as the source filed them. The calls are words filed in the database; no cut-off is given here.

For `COc1ccc(Nc2ccc3c(C(=O)O)cc(-c4ccccc4)nc3c2)cc1`, the zone of inhibition at 10 µg/disc came to 4 mm with Bacillus subtilis; 5 mm in the assay on Streptococcus pyogenes [1]; 3 mm with Escherichia coli; 3 mm with Klebsiella pneumoniae; 8 mm in the assay on Enterococcus faecalis; 2 mm with Staphylococcus aureus. The zone of inhibition at 10 µg/disc with Pseudomonas oleovorans is 5 mm; in the assay with Pseudomonas aeruginosa [2] it was 8 mm; in the assay with Bacillus cereus, 4 mm; with Bacillus pumilus, 3 mm.
As to `O=C(O)c1cc(-c2ccccc2)nc2cc(Cl)ccc12`, the zone of inhibition at 10 µg/disc with Bacillus subtilis was 5 mm; with Streptococcus pyogenes [1], 4 mm; in the assay with Escherichia coli, 7 mm; in the assay with Klebsiella pneumoniae, 3 mm; with Enterococcus faecalis it was 7 mm; with Pseudomonas oleovorans, 6 mm. The zone of inhibition at 10 µg/disc in the assay on Pseudomonas aeruginosa [2] was 2 mm; in the assay on Bacillus cereus, 4 mm; in the assay with Bacillus pumilus, 8 mm. The “diameter of the inhibition zone (DIZ)” value with Staphylococcus aureus is “inactive”.
As to GENTAMICIN, the inhibition zone (IZ) is 19 mm with Bacillus subtilis; 17 mm in the assay on Streptococcus pyogenes [1]; 16 mm in the assay on Escherichia coli; 16 mm in the assay on Klebsiella pneumoniae; 18 mm with Enterococcus faecalis; 16 mm in the assay on Staphylococcus aureus. The inhibition zone (IZ) with Pseudomonas oleovorans stood at 19 mm; with Pseudomonas aeruginosa [2], 19 mm; with Bacillus cereus it was 17 mm; in the assay with Bacillus pumilus, 17 mm.
As for `O=C(O)c1cc(-c2ccccc2)nc2cc(Nn3cnnc3)ccc12`, the “diameter of the inhibition zone (DIZ)” value with Bacillus subtilis, in the assay with Streptococcus pyogenes [1] and in the assay with Pseudomonas aeruginosa [2] was “inactive” throughout. The zone of inhibition at 10 µg/disc came to 3 mm in the assay on Escherichia coli; 4 mm with Klebsiella pneumoniae; 3 mm with Enterococcus faecalis; 2 mm in the assay on Staphylococcus aureus; 4 mm with Pseudomonas oleovorans; 3 mm in the assay on Bacillus cereus. Besides, the zone of inhibition at 10 µg/disc in the assay on Bacillus pumilus came to 2 mm.
In the case of `O=C(O)c1cc(-c2ccccc2)nc2cc(Nc3ccncc3)ccc12`, the zone of inhibition at 10 µg/disc in the assay with Bacillus subtilis was 5 mm; in the assay with Escherichia coli, 4 mm; in the assay with Klebsiella pneumoniae, 4 mm; with Enterococcus faecalis it was 7 mm; with Staphylococcus aureus it was 3 mm; in the assay on Pseudomonas oleovorans, 4 mm. Besides, the figures for the zone of inhibition at 10 µg/disc with Pseudomonas aeruginosa [2], in the assay on Bacillus cereus and with Bacillus pumilus were 5 mm, 5 mm and 6 mm, respectively. The “diameter of the inhibition zone (DIZ)” value in the assay on Streptococcus pyogenes [1] was “inactive”.
Regarding `NC(=O)Nc1ccc2c(C(=O)O)cc(-c3ccccc3)nc2c1`, the zone of inhibition at 10 µg/disc worked out at 9 mm in the assay on Bacillus subtilis; 9 mm in the assay with Streptococcus pyogenes [1]; 7 mm in the assay with Escherichia coli; 6 mm in the assay on Klebsiella pneumoniae; 6 mm in the assay with Enterococcus faecalis; 9 mm in the assay with Staphylococcus aureus. In addition, the zone of inhibition at 10 µg/disc with Pseudomonas oleovorans came to 9 mm; with Pseudomonas aeruginosa [2], 9 mm; in the assay with Bacillus cereus it was 10 mm; in the assay with Bacillus pumilus it was 6 mm.
In the case of `O=C(O)c1cc(-c2ccccc2)nc2cc(Nc3nccs3)ccc12`, the zone of inhibition at 10 µg/disc in the assay with Bacillus subtilis came to 9 mm; in the assay on Streptococcus pyogenes [1], 13 mm; with Escherichia coli, 7 mm; in the assay on Klebsiella pneumoniae, 5 mm; in the assay with Enterococcus faecalis, 12 mm; with Staphylococcus aureus it was 10 mm. Further, the zone of inhibition at 10 µg/disc in the assay with Pseudomonas oleovorans stood at 13 mm; in the assay with Pseudomonas aeruginosa [2], 15 mm; with Bacillus cereus it was 13 mm; in the assay on Bacillus pumilus, 12 mm. The MIC in the assay with Streptococcus pyogenes [3] turned out to be 5 µg; with Pseudomonas aeruginosa [4], 3 µg.
`O=C(O)c1cc(-c2ccccc2)nc2cc(N3CCNCC3)ccc12`: the zone of inhibition at 10 µg/disc with Bacillus subtilis amounted to 2 mm; in the assay with Streptococcus pyogenes [1] it was 7 mm; in the assay on Escherichia coli, 10 mm; in the assay with Klebsiella pneumoniae, 6 mm; in the assay on Enterococcus faecalis it was 7 mm; in the assay on Staphylococcus aureus, 4 mm. Moreover, the zone of inhibition at 10 µg/disc in the assay with Pseudomonas oleovorans was 11 mm; in the assay on Pseudomonas aeruginosa [2], 4 mm; in the assay with Bacillus cereus, 5 mm; in the assay with Bacillus pumilus, 5 mm.
For `NS(=O)(=O)c1ccc(Nc2ccc3c(C(=O)O)cc(-c4ccccc4)nc3c2)cc1`, the zone of inhibition at 10 µg/disc in the assay on Bacillus subtilis amounted to 5 mm; in the assay on Streptococcus pyogenes [1], 5 mm; with Escherichia coli it was 8 mm; in the assay with Enterococcus faecalis it was 5 mm; in the assay on Staphylococcus aureus it was 9 mm; with Pseudomonas oleovorans, 11 mm. The zone of inhibition at 10 µg/disc turned out to be 4 mm in the assay with Pseudomonas aeruginosa [2], 5 mm in the assay with Bacillus cereus and 2 mm with Bacillus pumilus. The “diameter of the inhibition zone (DIZ)” value in the assay with Klebsiella pneumoniae is “inactive”.
Regarding `Cc1ccc(Nc2ccc3c(C(=O)O)cc(-c4ccccc4)nc3c2)cc1`, the zone of inhibition at 10 µg/disc with Bacillus subtilis amounted to 6 mm; in the assay on Streptococcus pyogenes [1], 7 mm; with Escherichia coli it was 8 mm; in the assay on Klebsiella pneumoniae, 3 mm; in the assay with Enterococcus faecalis, 9 mm; in the assay with Staphylococcus aureus it was 5 mm. The zone of inhibition at 10 µg/disc in the assay with Pseudomonas oleovorans was 8 mm; in the assay on Pseudomonas aeruginosa [2] it was 3 mm; in the assay with Bacillus cereus it was 6 mm; in the assay with Bacillus pumilus it was 9 mm.
In the case of `NC(=S)Nc1ccc2c(C(=O)O)cc(-c3ccccc3)nc2c1`, the “diameter of the inhibition zone (DIZ)” value with Bacillus subtilis and with Klebsiella pneumoniae was “inactive” throughout. Also, the zone of inhibition at 10 µg/disc in the assay with Streptococcus pyogenes [1] came out at 5 mm; in the assay on Escherichia coli it was 5 mm; in the assay with Enterococcus faecalis, 9 mm; in the assay on Staphylococcus aureus, 9 mm; with Pseudomonas oleovorans, 7 mm; in the assay with Pseudomonas aeruginosa [2], 12 mm. Further, the zone of inhibition at 10 µg/disc was 5 mm in the assay on Bacillus cereus and 3 mm with Bacillus pumilus.
As for `CC1COc2c(N3CCN(C)CC3)c(F)cc3c(=O)c(C(=O)O)cn1c23` (centres undefined) [OFLOXACIN], the zone of inhibition at 10 µg/disc in the assay with Bacillus subtilis turned out to be 17 mm; in the assay on Streptococcus pyogenes [1], 17 mm; in the assay with Escherichia coli, 17 mm; in the assay with Klebsiella pneumoniae, 19 mm; with Enterococcus faecalis, 16 mm; in the assay on Staphylococcus aureus it was 16 mm. In addition, the zone of inhibition at 10 µg/disc in the assay with Pseudomonas oleovorans stood at 17 mm; in the assay on Pseudomonas aeruginosa [2], 16 mm; in the assay on Bacillus cereus it was 16 mm; in the assay with Bacillus pumilus, 17 mm.
Take `O=C(O)c1cc(-c2ccccc2)nc2cc(Nc3ccccc3)ccc12`: the zone of inhibition at 10 µg/disc with Bacillus subtilis turned out to be 9 mm; with Streptococcus pyogenes [1], 7 mm; with Escherichia coli, 10 mm; in the assay on Klebsiella pneumoniae, 5 mm; in the assay with Enterococcus faecalis, 9 mm; in the assay with Staphylococcus aureus, 8 mm. The zone of inhibition at 10 µg/disc in the assay on Pseudomonas oleovorans amounted to 12 mm; with Pseudomonas aeruginosa [2], 4 mm; in the assay on Bacillus cereus, 10 mm; in the assay with Bacillus pumilus, 5 mm. The MIC in the assay with Streptococcus pyogenes [3] was determined as 4 µg; in the assay with Pseudomonas aeruginosa [4], 9 µg.
As for `O=C(O)CNc1ccc2c(C(=O)O)cc(-c3ccccc3)nc2c1`, the “diameter of the inhibition zone (DIZ)” value in the assay on Bacillus subtilis and with Staphylococcus aureus was “inactive” each time. The zone of inhibition at 10 µg/disc with Streptococcus pyogenes [1] was 5 mm; in the assay on Escherichia coli it was 2 mm; with Klebsiella pneumoniae, 5 mm; in the assay on Enterococcus faecalis, 7 mm; in the assay on Pseudomonas oleovorans it was 8 mm; in the assay with Pseudomonas aeruginosa [2], 4 mm. Besides, the zone of inhibition at 10 µg/disc in the assay on Bacillus cereus was 4 mm; in the assay with Bacillus pumilus it was 2 mm.
`O=C(O)c1cc(-c2ccccc2)nc2cc(Nc3ccc([N+](=O)[O-])cc3)ccc12`: the zone of inhibition at 10 µg/disc in the assay on Bacillus subtilis worked out at 5 mm; in the assay on Streptococcus pyogenes [1], 2 mm; with Escherichia coli, 12 mm; in the assay on Enterococcus faecalis, 3 mm; with Staphylococcus aureus, 7 mm; in the assay with Pseudomonas oleovorans it was 8 mm. For the same compound, the zone of inhibition at 10 µg/disc in the assay with Bacillus cereus came to 9 mm; in the assay on Bacillus pumilus it was 11 mm. Besides, the “diameter of the inhibition zone (DIZ)” value in the assay with Klebsiella pneumoniae and in the assay with Pseudomonas aeruginosa [2] was “inactive” throughout.
